Measurements as given in PubChem BioAssay (NCI).
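Interpolation was linear, between the two tested concentrations surrounding the appropriate level; five concentrations were tested over 48 hours in 96-well plates. TGI is the concentration that stops growth completely.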

How the values were obtained:
Assay in all cases: NCI tumour cell line growth inhibition, 48 h
SNB-19 CNS = test system: SNB-19 CNS
T-47D breast = test system: T-47D breast
SW-620 colon = test system: SW-620 colon
SK-MEL-5 melanoma = test system: SK-MEL-5 melanoma
SF-295 CNS = test system: SF-295 CNS
HOP-92 NSCLC = test system: HOP-92 NSCLC
UO-31 renal = test system: UO-31 renal
NCI-H226 lung = test system: NCI-H226 lung
HL-60(TB) leukemia = test system: HL-60(TB) leukemia
CAKI-1 renal = test system: CAKI-1 renal
IGROV1 ovarian = test system: IGROV1 ovarian
MDA-MB-435 = test system: MDA-MB-435
SNB-75 CNS = test system: SNB-75 CNS
HCT-15 colon = test system: HCT-15 colon
DU-145 prostate = test system: DU-145 prostate
SF-539 CNS = test system: SF-539 CNS
UACC-257 melanoma = test system: UACC-257 melanoma
COLO 205 colon = test system: COLO 205 colon
SF-268 CNS = test system: SF-268 CNS
NCI-H23 lung = test system: NCI-H23 lung
HT29 colon = test system: HT29 colon
MDA-N = test system: MDA-N
HCC-2998 colon = test system: HCC-2998 colon
A549 NSCLC = test system: A549 NSCLC
LOX IMVI melanoma = test system: LOX IMVI melanoma
RPMI-8226 leukemia = test system: RPMI-8226 leukemia
ACHN renal = test system: ACHN renal
SN12C renal = test system: SN12C renal
SR leukemia = test system: SR leukemia
MALME-3M melanoma = test system: MALME-3M melanoma
SK-MEL-2 melanoma = test system: SK-MEL-2 melanoma
TK-10 renal = test system: TK-10 renal
PC-3 prostate = test system: PC-3 prostate
A498 renal = test system: A498 renal
RXF 393 renal = test system: RXF 393 renal
HCT-116 colon = test system: HCT-116 colon
HOP-62 NSCLC = test system: HOP-62 NSCLC
MOLT-4 leukemia = test system: MOLT-4 leukemia
NCI/ADR-RES ovarian = test system: NCI/ADR-RES ovarian
M14 melanoma = test system: M14 melanoma
U251 CNS = test system: U251 CNS
NCI-H522 lung = test system: NCI-H522 lung
SK-OV-3 ovarian = test system: SK-OV-3 ovarian
BT-549 breast = test system: BT-549 breast
NCI-H460 lung = test system: NCI-H460 lung
HS 578T breast = test system: HS 578T breast
MDA-MB-231 breast = test system: MDA-MB-231 breast
UACC-62 melanoma = test system: UACC-62 melanoma
OVCAR-4 ovarian = test system: OVCAR-4 ovarian
OVCAR-3 ovarian = test system: OVCAR-3 ovarian
MCF7 breast = test system: MCF7 breast
KM12 colon = test system: KM12 colon
SK-MEL-28 melanoma = test system: SK-MEL-28 melanoma
OVCAR-8 ovarian = test system: OVCAR-8 ovarian
786-0 renal = test system: 786-0 renal
OVCAR-5 ovarian = test system: OVCAR-5 ovarian
EKVX NSCLC = test system: EKVX NSCLC
CCRF-CEM leukemia = test system: CCRF-CEM leukemia
K-562 leukemia = test system: K-562 leukemia

Measured: TGI

O=c1cc(CO)oc(C(O)c2ccccc2)c1O (centres undefined)
not listed: EKVX NSCLC | CCRF-CEM leukemia | K-562 leukemia
> 100 µM: all other assays above

CCC(=O)O[C@H]1CC[C@H]2[C@@H]3CCC4=C/C(=N/OC(=O)c5cccc6c(=O)c7ccccc7[nH]c56)CC[C@]4(C)[C@H]3CC[C@]12C
57.5 µM: CCRF-CEM leukemia
75.5 µM: SK-MEL-2 melanoma
53.4 µM: MOLT-4 leukemia
54.5 µM: NCI-H460 lung
39.3 µM: SF-539 CNS
74.5 µM: HOP-92 NSCLC
45.4 µM: RXF 393 renal
99.6 µM: MDA-MB-435
48.2 µM: MCF7 breast
41.2 µM: HCC-2998 colon
47 µM: K-562 leukemia
55.1 µM: KM12 colon
77.7 µM: A498 renal | M14 melanoma
61.9 µM: HCT-15 colon
62.2 µM: UO-31 renal
54.7 µM: RPMI-8226 leukemia
36.5 µM: 786-0 renal
56.1 µM: NCI-H522 lung
51.4 µM: LOX IMVI melanoma
38.4 µM: OVCAR-3 ovarian
77.6 µM: IGROV1 ovarian
not listed: HL-60(TB) leukemia | CAKI-1 renal | DU-145 prostate | MALME-3M melanoma | HCT-116 colon
> 100 µM: all other assays above

CC(=O)O[C@H]1CCC2[C@@H]3CCC4Nc5oncc5C[C@]4(C)C3CC[C@@]21C (some centres undefined)
4.58 µM: HL-60(TB) leukemia
9.84 µM: SF-539 CNS
not listed: SNB-75 CNS | NCI-H522 lung | HS 578T breast | UACC-62 melanoma | EKVX NSCLC
> 10 µM: all other assays above
